Blank lines part the entries; values can stand above or below the molecule they belong to.
Legend:
[1] = target: T1, MCR (McrABG core) in the MCR activation complex (Methanococcus maripaludis, UniProt A0A2L1CBB0+A0A2L1CBB3+A0A2L1CBG2); assay: cryo-EM structure; assay type: binding
T1 construct: gene mcrA; native complex pulled down from M. maripaludis by genomic N-terminal Twin-Strep-tag on McrC; McrA with native post-translational modifications; with Methyl-coenzyme M reductase operon protein C; Methanogenesis marker protein 7; Methanogenesis marker protein 17; Methanogenesis marker protein 3; Methyl-coenzyme M reductase system component A2; DUF2098 domain-containing protein

A2 component [2] = target: T2, A2 component (Methanococcus maripaludis, UniProt A0A2L1C9A1); assay: cryo-EM structure; assay type: binding; settings: two ATP with Mg ions, pre-hydrolytic state; sample incubated with 5 mM ATP
T2 construct: gene opuCA; with Methyl-coenzyme M reductase subunit alpha; Methyl-coenzyme M reductase subunit beta; Methyl-coenzyme M reductase subunit gamma; Methyl-coenzyme M reductase operon protein C; Methanogenesis marker protein 7; Methanogenesis marker protein 17; Methanogenesis marker protein 3; DUF2098 domain-containing protein

A2 component [3] = target: T2, A2 component; assay: mass photometry (stabilisation of the complex); assay type: binding; settings: 5 mM AMP-PNP, 20 mM Ti(III) citrate; indirect, through assembly of A2 with MCR
[4] = target: methyl-coenzyme M reductase (MCR) core (Methanococcus maripaludis (endogenous in M. maripaludis JJ Δupt)) (UniProt Q6LWZ9); assay: cryo-EM structure; single-particle analysis of the Strep-Tactin-purified MCR activation complex (1.2 mg/ml), vitrified anaerobically 'as isolated' (maps with A2 at 2.5 Å and without A2 at 2.7 Å) and after 30 min with 5 mM ATP and the CH4 reaction components except Ti(III) citrate (2.1 Å, locally 1.8 Å)

T1 sequence (A0A2L1CBB3 entry or part of it): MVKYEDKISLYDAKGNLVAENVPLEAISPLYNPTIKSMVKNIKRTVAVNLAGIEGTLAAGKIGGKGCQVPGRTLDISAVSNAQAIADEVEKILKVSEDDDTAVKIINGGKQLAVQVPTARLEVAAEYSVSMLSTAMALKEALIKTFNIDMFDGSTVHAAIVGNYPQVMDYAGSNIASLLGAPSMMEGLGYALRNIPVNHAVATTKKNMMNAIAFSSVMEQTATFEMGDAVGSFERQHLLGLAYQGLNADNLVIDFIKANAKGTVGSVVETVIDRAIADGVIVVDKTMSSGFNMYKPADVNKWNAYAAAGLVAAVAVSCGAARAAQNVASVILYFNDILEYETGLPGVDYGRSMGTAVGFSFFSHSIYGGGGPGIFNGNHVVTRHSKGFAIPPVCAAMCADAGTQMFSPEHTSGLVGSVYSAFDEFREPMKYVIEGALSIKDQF
T1 sequence (A0A2L1CBB0 entry or part of it): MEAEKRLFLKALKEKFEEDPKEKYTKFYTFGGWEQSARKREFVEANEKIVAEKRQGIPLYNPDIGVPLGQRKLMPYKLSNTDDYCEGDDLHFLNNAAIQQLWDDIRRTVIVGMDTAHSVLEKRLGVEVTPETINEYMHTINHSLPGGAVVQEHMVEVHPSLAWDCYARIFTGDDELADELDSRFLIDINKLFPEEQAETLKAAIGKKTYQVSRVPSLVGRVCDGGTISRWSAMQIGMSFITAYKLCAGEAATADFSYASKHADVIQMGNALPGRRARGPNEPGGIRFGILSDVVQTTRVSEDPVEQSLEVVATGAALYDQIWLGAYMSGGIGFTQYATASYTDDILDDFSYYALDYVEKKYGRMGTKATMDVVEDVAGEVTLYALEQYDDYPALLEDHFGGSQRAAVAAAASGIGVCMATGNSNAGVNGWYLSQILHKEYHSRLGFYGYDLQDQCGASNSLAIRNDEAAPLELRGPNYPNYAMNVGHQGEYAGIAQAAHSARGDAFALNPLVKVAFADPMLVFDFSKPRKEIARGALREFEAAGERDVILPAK
T1 sequence (A0A2L1CBG2 entry or part of it): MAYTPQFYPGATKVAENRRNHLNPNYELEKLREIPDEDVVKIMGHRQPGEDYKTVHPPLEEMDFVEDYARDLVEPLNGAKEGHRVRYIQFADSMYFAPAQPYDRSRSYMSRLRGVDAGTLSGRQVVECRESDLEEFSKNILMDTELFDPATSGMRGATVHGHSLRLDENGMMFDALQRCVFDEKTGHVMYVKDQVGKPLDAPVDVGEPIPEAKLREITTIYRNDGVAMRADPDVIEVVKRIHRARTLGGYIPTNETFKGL
T1 sequence (G0H3B1 entry or part of it, further chain): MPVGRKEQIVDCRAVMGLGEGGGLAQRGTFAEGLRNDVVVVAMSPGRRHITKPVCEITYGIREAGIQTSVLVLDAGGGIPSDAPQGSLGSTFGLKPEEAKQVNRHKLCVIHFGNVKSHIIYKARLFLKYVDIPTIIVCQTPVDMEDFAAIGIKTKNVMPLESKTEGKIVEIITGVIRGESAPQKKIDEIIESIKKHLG

Molecule: C[C@@H](OP(=O)(O)O)[C@H](NC(=O)CCCCCCSSCCS(=O)(=O)O)C(=O)O [CoMS–SCoB]
cryo-EM structure ([1]; proximal active site, next to F430, sample incubated with ATP): In the proximal active site, we found the CoMS–SCoB heterodisulfide next to F430

Molecule: C[C@@H](OP(=O)(O)O)[C@H](NC(=O)CCCCCCS)C(=O)O [CoB–SH]
cryo-EM structure ([1]; distal active site): the phosphate moiety of CoB–SH was kept in place by the positively charged McrA residues

Molecule: Nc1ncnc2c1ncn2[C@@H]1O[C@H](COP(=O)(O)OP(=O)(O)OP(=O)(O)O)[C@@H](O)[C@H]1O [ATP]
cryo-EM structure (A2 component [2]): Our structure revealed two ATP molecules and their coordinating Mg ions

Molecule: Nc1ncnc2c1ncn2[C@@H]1O[C@H](COP(=O)(O)OP(=O)(O)NP(=O)(O)O)[C@@H](O)[C@H]1O [AMP-PNP]
mass photometry (stabilisation of the complex) (A2 component [3]): A similar effect was observed when AMP-PNP, a non-hydrolysable ATP analogue, was used

occupancy of the A2 component, sample preincubated with 5 mM ATP (% of the particles) [4]: 92
percent of particles with the A2 component, sample 'as isolated' (% of particles) [4]: 58
B1: A2 component (natural protein)
chain: MLLLEVKNVSKSYGDTEVLKNVSFELNEGDVMGVLGRSGAGKSVLLHMLRGMEGYEPTSGQIIYHVAYCPHCENVEAPSQVGKKCECETEYVAKSVDFWNNNEITYALKKKIAIMLQRTFALYGEKTVAENIMEALTAAGYEGKDATEWALNLIKMVKLEHRVAHISRDLSGGEKQRVVLARQIAKNPVIFLADEPTGTLDPKTAKFVHNALTEAVIKHNIAMVITSHWPEVIEELCQKAIWLDKGEMRLVGESKHVVEEFMKTVTSMKEFEKVEVKDELLKLENVEKRYVSVDRGIVKAVDGIDVSINEKEIFGLVGVSGAGKTTLSKIIAAVIPPSKGNYEFRLADEWVDMTKVGPLYRGRAKRYIGMLFQEYSLYPHRTILYNLTESIGLEMPGEFAKMKAEHTLVSVGFTEEEAENMLEKHPSELSVGEKHRVALAQVLIREPHLILLDEPTGTMDPITRNQVAESIQKSRSELDQTYVIVSHDMDFVLNVCDRAALVRGGKIIKTGKPDEIVKILSEEEKDEMIGH

— article PMC12176620, “Structure of the ATP-driven methyl-coenzyme M reductase activation complex” (Nature, 2025)
